Measurements taken from US20090010979A1, “Method of Controlling Termites” (BAYER CROPSCIENCE LP, priority 2004, published 2009).

Experiment: Arrestant composition on silica with Premise 75WP distributed in soil: movement of components
Format: physicochemical
Settings: after several months
Description: (A) Preparation of the arrestant composition: A mixture of 5-methylpentacosane, 11-methylpentacosane, 9-Z-pentacosene, n-pentacosane, and n-hexamethylcosane in proportion of about 11.4:36.3:19.6:27.7:5.0 as a 0.06% (by weight) solution in acetone (0.06 g) was diluted into acetone and mixed with 149.4 g of Zeolex® 7A brand silica (J.M. Huber, Inc. USA) The acetone was removed by evaporation at 50° C. at 3.5 mm Hg to provide a smooth flowable powder. The powder was mixed with 850 g of Premise® 75WP (imidacloprid active ingredient), and milled to a consistent appearance.
(B) Use of the Arrestant Composition of Part (A): The final product is distributed in soil.

O=[N+]([O-])NC1=NCCN1Cc1ccc(Cl)nc1 [imidacloprid]
movement in soil: moves downward
